Source: patent US20230356105A1, “TETRAAZADODECANE BASED CHELATING AGENTS FOR SEPARATION OF RARE EARTH ELEMENTS AND METHOD THEREFOR” (Ustav Organicke Chemie a Biochemie AV CR V.V.I., priority 2020, published 2023)
Blank lines part the entries; values can stand above or below the compound they belong to.

Test: Use of additives to improve separation of Nd/Dy mixture by precipitation with L5 (Example 18)
Type: physicochemical
Conditions: 11 mM L5
Procedure: Stock solutions were pipetted into plastic 1×1 cm cuvettes to prepare reaction mixtures with concentrations as follows: • 1. […] 5 mM NdCl3 • 3. 5 mM DyCl3 • 4. 500 mM MOPS pH=7 • 5. the additive of interest, in a variable concentration; if possible, stock solutions were prepared from Na^+ salt forms of the compound; if not, the stock solutions were titrated by NaOH/HCl to pH=7 prior to addition (see Table 12 for additives and concentrations)
These aqueous reaction mixtures, each prepared to a total volume of 2.0 mL with the addition of water as necessary, were mixed by the use of a PTFE-coated stir bar on a magnetic stirrer. The cuvettes were sealed with transparent tape to prevent evaporation overnight. The reaction mixtures were stirred for 18 hours, at which point 500 μL aliquots of each reaction mixture were transferred into plastic 2 mL Eppendorf tubes and centrifuged. The supernatants were carefully pipetted out and transferred to a new set of tubes. The precipitate was dissolved by addition of 500 μL 1M HCl. The absolute concentration of Nd and Dy in each supernatant and precipitate was determined by ICP-OES.

SMILES: c1ccncc1 [pyridine]
Precipitate concentration [mM] Dy (additive 20 mM): 4.33 mM
Precipitate concentration [mM] Nd (additive 20 mM): 4.90 mM
Supernatant concentration [mM] Dy (additive 20 mM): 0.28 mM
Supernatant concentration [mM] Nd (additive 20 mM): 0.06 mM
Precipitate concentration [mM] Dy (additive 250 mM): 4.02 mM
Precipitate concentration [mM] Nd (additive 250 mM): 4.67 mM
Supernatant concentration [mM] Dy (additive 250 mM): 0.41 mM
Supernatant concentration [mM] Nd (additive 250 mM): 0.09 mM

Precipitate concentration [mM] Dy (additive 5 mM): 4.87 mM
Precipitate concentration [mM] Nd (additive 5 mM): 6.21 mM
Supernatant concentration [mM] Dy (additive 5 mM): 1.21 mM
Supernatant concentration [mM] Nd (additive 5 mM): 0.13 mM
Precipitate concentration [mM] Dy (additive 10 mM): 3.82 mM
Precipitate concentration [mM] Nd (additive 10 mM): 6.15 mM
Supernatant concentration [mM] Dy (additive 10 mM): 2.34 mM
Supernatant concentration [mM] Nd (additive 10 mM): 0.18 mM
Precipitate concentration [mM] Dy (additive 15 mM): 2.72 mM
Precipitate concentration [mM] Nd (additive 15 mM): 5.68 mM
Supernatant concentration [mM] Dy (additive 15 mM): 3.26 mM
Supernatant concentration [mM] Nd (additive 15 mM): 0.49 mM
SMILES: F [fluoride]

SMILES: Cl [chloride]
Precipitate concentration [mM] Dy (additive 100 mM): 4.58 mM
Precipitate concentration [mM] Nd (additive 100 mM): 4.62 mM
Supernatant concentration [mM] Dy (additive 100 mM): 0.29 mM
Supernatant concentration [mM] Nd (additive 100 mM): 0.24 mM
Precipitate concentration [mM] Dy (additive 200 mM): 4.48 mM
Precipitate concentration [mM] Nd (additive 200 mM): 4.57 mM
Supernatant concentration [mM] Dy (additive 200 mM): 0.22 mM
Supernatant concentration [mM] Nd (additive 200 mM): 0.12 mM
Precipitate concentration [mM] Dy (additive 500 mM): 4.29 mM
Precipitate concentration [mM] Nd (additive 500 mM): 4.39 mM
Supernatant concentration [mM] Dy (additive 500 mM): 0.24 mM
Supernatant concentration [mM] Nd (additive 500 mM): 0.11 mM
Precipitate concentration [mM] Dy (additive 1000 mM): 4.88 mM
Precipitate concentration [mM] Nd (additive 1000 mM): 4.97 mM
Supernatant concentration [mM] Dy (additive 1000 mM): 0.24 mM
Supernatant concentration [mM] Nd (additive 1000 mM): 0.11 mM

Precipitate concentration [mM] Dy (additive 20 mM): 4.36 mM
Precipitate concentration [mM] Nd (additive 20 mM): 4.88 mM
Supernatant concentration [mM] Dy (additive 20 mM): 0.42 mM
Supernatant concentration [mM] Nd (additive 20 mM): 0.07 mM
SMILES: O=C(O)c1ccccc1O [salicylic acid]

SMILES: O=CO [formate]
Precipitate concentration [mM] Dy (additive 50 mM): 4.33 mM
Precipitate concentration [mM] Nd (additive 50 mM): 5.17 mM
Supernatant concentration [mM] Dy (additive 50 mM): 0.51 mM
Supernatant concentration [mM] Nd (additive 50 mM): 0.07 mM
Precipitate concentration [mM] Dy (additive 100 mM): 3.84 mM
Precipitate concentration [mM] Nd (additive 100 mM): 4.85 mM
Supernatant concentration [mM] Dy (additive 100 mM): 1.09 mM
Supernatant concentration [mM] Nd (additive 100 mM): 0.42 mM
Precipitate concentration [mM] Dy (additive 250 mM): 3.33 mM
Precipitate concentration [mM] Nd (additive 250 mM): 5.38 mM
Supernatant concentration [mM] Dy (additive 250 mM): 1.68 mM
Supernatant concentration [mM] Nd (additive 250 mM): 0.11 mM
Precipitate concentration [mM] Dy (additive 500 mM): 2.09 mM
Precipitate concentration [mM] Nd (additive 500 mM): 4.93 mM
Supernatant concentration [mM] Dy (additive 500 mM): 2.51 mM
Supernatant concentration [mM] Nd (additive 500 mM): 0.22 mM

Precipitate concentration [mM] Dy (additive 20 mM): 0 mM
Precipitate concentration [mM] Nd (additive 20 mM): 0 mM
Supernatant concentration [mM] Dy (additive 20 mM): 5 mM
Supernatant concentration [mM] Nd (additive 20 mM): 5 mM
SMILES: O=C(O)c1ccccn1 [picolinic acid]

Precipitate concentration [mM] Dy (additive 1 mM): 4.03 mM
Precipitate concentration [mM] Nd (additive 1 mM): 4.30 mM
Supernatant concentration [mM] Dy (additive 1 mM): 0.38 mM
Supernatant concentration [mM] Nd (additive 1 mM): 0.14 mM
Precipitate concentration [mM] Dy (additive 5 mM): 3.62 mM
Precipitate concentration [mM] Nd (additive 5 mM): 4.77 mM
Supernatant concentration [mM] Dy (additive 5 mM): 1.24 mM
Supernatant concentration [mM] Nd (additive 5 mM): 0.19 mM
Precipitate concentration [mM] Dy (additive 10 mM): 2.38 mM
Precipitate concentration [mM] Nd (additive 10 mM): 4.49 mM
Supernatant concentration [mM] Dy (additive 10 mM): 2.27 mM
Supernatant concentration [mM] Nd (additive 10 mM): 0.25 mM
Precipitate concentration [mM] Dy (additive 20 mM): 1.21 mM
Precipitate concentration [mM] Nd (additive 20 mM): 4.08 mM
Supernatant concentration [mM] Dy (additive 20 mM): 3.52 mM
Supernatant concentration [mM] Nd (additive 20 mM): 0.66 mM
SMILES: O=C(O)CC(O)(CC(=O)O)C(=O)O [citrate]

SMILES: O=[N+]([O-])O [nitrate]
Precipitate concentration [mM] Dy (additive 100 mM): 4.27 mM
Precipitate concentration [mM] Nd (additive 100 mM): 4.39 mM
Supernatant concentration [mM] Dy (additive 100 mM): 0.36 mM
Supernatant concentration [mM] Nd (additive 100 mM): 0.14 mM
Precipitate concentration [mM] Dy (additive 200 mM): 3.89 mM
Precipitate concentration [mM] Nd (additive 200 mM): 3.97 mM
Supernatant concentration [mM] Dy (additive 200 mM): 0.41 mM
Supernatant concentration [mM] Nd (additive 200 mM): 0.15 mM
Precipitate concentration [mM] Dy (additive 500 mM): 4.16 mM
Precipitate concentration [mM] Nd (additive 500 mM): 4.46 mM
Supernatant concentration [mM] Dy (additive 500 mM): 0.82 mM
Supernatant concentration [mM] Nd (additive 500 mM): 0.14 mM
Precipitate concentration [mM] Dy (additive 1000 mM): 3.23 mM
Precipitate concentration [mM] Nd (additive 1000 mM): 4.61 mM
Supernatant concentration [mM] Dy (additive 1000 mM): 1.72 mM
Supernatant concentration [mM] Nd (additive 1000 mM): 0.15 mM
